Read-outs that look alike come from different tables or passages of the source.
Experiments:
MMP-9 (gelatinase-B) = MMP-9 (gelatinase-B) (Homo sapiens, UniProt P14780); experiment: fluorescence-based MMP-9 inhibition assay; assay type: biochemical; details: for inhibition at 1000 µM: read-out: percent inhibition of MMP-9
MMP-8 = MMP-8 (Homo sapiens, UniProt P22894); experiment: fluorescence-based MMP-8 inhibition assay; assay type: biochemical; details: MMP-8, fluorescence based assay
MMP-8, sequence (P22894 101-467, species assumed): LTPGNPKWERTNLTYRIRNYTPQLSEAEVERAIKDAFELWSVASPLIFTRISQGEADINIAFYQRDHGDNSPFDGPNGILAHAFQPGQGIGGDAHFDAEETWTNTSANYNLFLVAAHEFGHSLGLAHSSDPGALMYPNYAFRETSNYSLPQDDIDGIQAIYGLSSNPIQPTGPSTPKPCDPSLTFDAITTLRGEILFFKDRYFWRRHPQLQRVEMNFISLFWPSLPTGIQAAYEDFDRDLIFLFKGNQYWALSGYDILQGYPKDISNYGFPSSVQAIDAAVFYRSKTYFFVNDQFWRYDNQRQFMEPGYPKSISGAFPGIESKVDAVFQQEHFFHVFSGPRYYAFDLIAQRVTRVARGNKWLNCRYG

MMP-9 (gelatinase-B), sequence (P14780 94-707, species assumed): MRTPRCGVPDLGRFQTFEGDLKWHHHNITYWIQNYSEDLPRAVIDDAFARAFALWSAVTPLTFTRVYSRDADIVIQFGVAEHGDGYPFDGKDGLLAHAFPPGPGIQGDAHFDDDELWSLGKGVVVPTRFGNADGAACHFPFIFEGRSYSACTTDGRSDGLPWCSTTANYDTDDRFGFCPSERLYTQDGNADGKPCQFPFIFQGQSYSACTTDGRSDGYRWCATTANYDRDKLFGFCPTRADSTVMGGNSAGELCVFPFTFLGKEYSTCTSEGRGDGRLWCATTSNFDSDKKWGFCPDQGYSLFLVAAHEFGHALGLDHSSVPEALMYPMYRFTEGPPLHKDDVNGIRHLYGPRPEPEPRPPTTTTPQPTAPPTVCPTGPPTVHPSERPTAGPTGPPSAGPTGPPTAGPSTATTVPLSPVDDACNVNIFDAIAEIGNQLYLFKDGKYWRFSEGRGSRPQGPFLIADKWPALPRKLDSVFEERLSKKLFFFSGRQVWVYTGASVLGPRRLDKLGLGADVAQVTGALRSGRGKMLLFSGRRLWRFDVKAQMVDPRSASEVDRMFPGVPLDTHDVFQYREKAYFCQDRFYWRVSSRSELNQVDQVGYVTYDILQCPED

SMILES: Cc1occc(=O)c1O [Compound 3, 3-hydroxy-2-methyl-4-pyrone]
- IC50 (MMP-9 (gelatinase-B)): 4030 µM
- inhibition at 1000 µM (MMP-9 (gelatinase-B)): ~50%

SMILES: Cc1occc(=S)c1O [Compound 5, 3-hydroxy-2-methyl-4-pyrothione]
- IC50 (MMP-9 (gelatinase-B)): 138 µM
- inhibition at 1000 µM (MMP-9 (gelatinase-B)): ~50%

SMILES: O=C(NCc1ccc(-c2ccccc2)cc1)c1cccc(=O)n1O [Compound 7, 1,2-HOPO-2]
- IC50 (MMP-9 (gelatinase-B); MMP-9, fluorescence based assay): 2.7 µM
- IC50 (MMP-8): 0.075 µM

Reference: publication PMC2867072 (Chemical communications (Cambridge, England), 2010)
